# Experimental data reported in US10526341B2, “Thienopyrimidines and uses thereof” (Memorial Sloan-Kettering Cancer Center, priority 2014, dated 2020).
# “Also recorded” adds a separate entry of the source.
# Key:
# [1] = tested on: Glioblastoma 050715; experiment: Ki67 immunofluorescence proliferation assay; format: cell-based, human; conditions: pre-treatment 11.9
# Experimental: (§1) Cell proliferation and apoptosis were assessed by immunofluorescence for Ki67 and TUNEL assays. After staining, Ki67 and TUNEL positive cells were manually counted to calculate a percentage of positive nuclei (see, e.g., FIG. 33). The pharmacokinetic profile of MI-2-2 was assessed by treating animals with 30 mg/kg and 60 mg/kg IP MI-2-2. Tail vein blood sampling and extraction of the pons was performed in animals at multiple time points and samples analyzed by LC-MS to generate a curve.
# [2] = tested on: Glioblastoma 070909; experiment: Ki67 immunofluorescence proliferation assay; format: cell-based, human; conditions: pre-treatment 18.2, *p < 0.05
# Experimental: as §1
# [3] = tested on: Astrocytes; experiment: Ki67 immunofluorescence proliferation assay; format: cell-based, human; conditions: pre-treatment 2.4
# Experimental: as §1
# [4] = tested on: Glioblastoma 040114; experiment: Ki67 immunofluorescence proliferation assay; format: cell-based, human; conditions: pre-treatment 56.0, *p < 0.05
# Experimental: as §1
# [5] = tested on: SU-DIPGVI; experiment: Ki67 immunofluorescence proliferation assay; format: cell-based, human; conditions: pre-treatment 26.5, *p < 0.05
# Experimental: as §1
# [6] = tested on: Glioblastoma 040811; experiment: Ki67 immunofluorescence proliferation assay; format: cell-based, human; conditions: pre-treatment 28.4
# Experimental: as §1
# [7] = tested on: NPC; experiment: Ki67 immunofluorescence proliferation assay; format: cell-based, human; conditions: pre-treatment 10.6
# Experimental: as §1
# [8] = tested on: Glioblastoma 030613; experiment: Ki67 immunofluorescence proliferation assay; format: cell-based, human; conditions: pre-treatment 30.4, *p < 0.05
# Experimental: as §1
# [9] = tested on: Fibroblasts; experiment: Ki67 immunofluorescence proliferation assay; format: cell-based, human; conditions: pre-treatment 29.6
# Experimental: as §1
# [10] = tested on: SU-DIPGIV; experiment: Ki67 immunofluorescence proliferation assay; format: cell-based, human; conditions: pre-treatment 34.9, *p < 0.05
# Experimental: as §1
# [11] = Pharmacokinetic profile of MI-2-2, blood and pons by LC-MS; format: in vivo, mice; conditions: 30 mg/kg systemic MI-2-2
# Experimental: as §1
# DIPIV xenografts were generated and are monitored monthly for BLI signal prior to randomization into treatment groups.
# [12] = tested on: DIPGVI xenografts; experiment: DIPGVI xenografts, bioluminescence imaging; format: in vivo, mice; conditions: 60 mg/kg daily intraperitoneal, at 4 weeks
# Experimental: (§2) DIPG and glioblastoma cell lines were used to generate xenografts in NSG immunocompromised mice for in vivo testing. All lines used for xenografting were transfected lentiviral vectors encoding firefly luciferase to enable bioluminescence imaging (BLI). For DIPG xenografts, 100,000 DIGIV or DIPGVI cells were stereotactically injected into the pons of cold anesthetized P6 pups by transcutaneous injection. For GBM xenografts, 500,000 cells (030613 and 040114) were injected stereotactically into the striatum of 6 week old mice anesthetized with ketamine/xylazine cocktail. […] BLI was performed every week during treatment.
# (§3) BLI was performed using the IVIS Lumina II system. D-Luciferin (10 uL of 15 mg/mL solution was instilled by retro-orbital injection in mice under […] anesthesia and 5 minute exposures were collected. Fold change over baseline pre-randomization imaging was calculated.
# [13] = tested on: SU-DIPGVI; experiment: TUNEL apoptosis assay; format: cell-based, human; conditions: pre-treatment 14.3
# Experimental: as §1
# [14] = tested on: NPC; experiment: TUNEL apoptosis assay; format: cell-based, human; conditions: pre-treatment 3.8
# Experimental: as §1
# [15] = tested on: Fibroblasts; experiment: TUNEL apoptosis assay; format: cell-based, human; conditions: pre-treatment 0.4
# Experimental: as §1
# [16] = tested on: SU-DIPGIV; experiment: TUNEL apoptosis assay; format: cell-based, human; conditions: pre-treatment 7.6
# Experimental: as §1
# [17] = tested on: Glioblastoma 050715; experiment: alamarBlue cell viability, 12 point dose response, seven days; format: cell-based, human; conditions: 050715, seven days
# Experimental: (§4) Sensitivity to MI-2-2 was assessed by a 12 point dose response curve calculated after seven days of drug exposure and alamarBlue cell viability assay. Multiple patient tumor-derived DIPG (DIPGIV, DIPGVI, MSK-1, Peds8) and Glioblastoma (070909, 030613, 050715, 042315, 040811, 040114) were tested, with fibroblasts (MRCS), hES derived NPCs and astrocytes serving as controls (see FIGS. 29-33). Dose-response curves for the treatment of NPC, DIPGIV, and DIPGVI cell lines with MI-2-2, Panobinostat, and EPZ6438 are shown in FIG. 29.
# [18] = tested on: Glioblastoma 070909; experiment: as above; format: cell-based, human; conditions: 070909, seven days
# Experimental: as §4
# [19] = tested on: Astrocytes; experiment: as above; format: cell-based, human; conditions: sub-micromolar doses
# Experimental: as §4
# [20] = tested on: Glioblastoma 040114; experiment: as above; format: cell-based, human; conditions: 040114, seven days
# Experimental: as §4
# [21] = tested on: SU-DIPGVI; experiment: as above; format: cell-based, human
# Experimental: as §4
# [22] = tested on: Glioblastoma 040811; experiment: as above; format: cell-based, human; conditions: 040811, seven days
# Experimental: as §4
# [23] = tested on: fibroblasts (MRCS); experiment: as above; format: cell-based, human; conditions: sub-micromolar doses
# Experimental: as §4
# [24] = tested on: Glioblastoma 030613; experiment: as above; format: cell-based, human; conditions: 030613, seven days
# Experimental: as §4
# [25] = tested on: hES derived NPCs; experiment: as above; format: cell-based, human; conditions: sub-micromolar doses
# Experimental: as §4
# [26] = tested on: SU-DIPGIV; experiment: as above; format: cell-based, human
# Experimental: as §4
# [27] = tested on: 040114 xenografts; experiment: GBM 040114 xenografts, bioluminescence imaging; format: in vivo, mice; conditions: 40 mg/kg BID, after three weeks
# Experimental: as §2, §3
# [28] = tested on: DIPG patient-derived tumor line; experiment: MI-2-2 dose-response curve, cell survival (FIG. 19H); format: cell-based, human
# Experimental: (§5) FIG. 19 depicts the chemical screen of the transformed NPCs. FIG. 19A is a schematic representation of the screening strategy. A mixture of GFP-labeled normal NPCs and RFP-labeled P5K cells in a 1:3 ratio were plated into 96-well plates and each compound in the library was added in a 2-fold serial dilution for a total of 8 doses. […] Error bars indicate S.D. (n=4). […] Intracranial growth of Luciferase-labeled P5K cells was measured by quantitative in vivo bioluminescence imaging. Values indicate fold change of luminescence before and after the treatment. […] Cells were treated with MI-2 for 7 days and the number of viable cells was counted by trypan-blue staining (n=4). Error bars in panels C-D, E, F and G indicate mean±S.D. *, p<0.05; **, p<0.01. NS, Not Significant. FIG. 19H represents a dose-response curve of MI-2-2.
# (§6) The normal neural precursors are being analyzed for proof of maintained phenotype and differentiation ability, in further support of the safety profile of the drug used.
# [29] = tested on: normal neural precursors (NPC); experiment: as above; format: cell-based, human
# Experimental: as §5, §6
# [30] = tested on: fibroblasts (MRCS); experiment: as above; format: cell-based, human
# Experimental: as §5, §6
# [31] = tested on: 042314; experiment: alamarBlue cell viability, 12 point dose response, seven days; format: cell-based, human; conditions: 042314, seven days
compound,measurement,setting,value
CC1(C)CN=C(N2CCN(c3ncnc4sc(CC(F)(F)F)cc34)CC2)S1 [MI-2-2],Ki67 % post-treatment,[1],"11.9, 7.8%"
same,Ki67 % post-treatment,[2],"18.2, 10.8* %"
same,Ki67 % post-treatment,[3],"2.4, 4.3%"
same,Ki67 % post-treatment,[4],"56.0, 36.1* %"
same,Ki67 % post-treatment,[5],"26.5, 14.4* %"
same,Ki67 % post-treatment,[6],"28.4, 22.5%"
same,Ki67 % post-treatment,[7],"10.6, 12.1%"
same,Ki67 % post-treatment,[8],"30.4, 16.2* %"
same,Ki67 % post-treatment,[9],"29.6, 27.5%"
same,Ki67 % post-treatment,[10],"34.9, 16.0* %"
same,In vivo blood-brain barrier (BBB) penetration,[11],penetration was demonstrated
same,maintenance of therapeutic levels,[11],> 6 h
same,BLI signal in DIPGVI xenografts,[12],no significant difference in BLI signal
same,TUNEL % post-treatment,[13],"14.3, 17.9%"
same,TUNEL % post-treatment,[14],"3.8, 4.0%"
same,TUNEL % post-treatment,[15],"0.4, 0.0%"
same,TUNEL % post-treatment,[16],"7.6, 21.4%"
same,IC50,[17],83.4 nM
same,IC50,[18],13.5 nM
same,depletion of astrocytes,[19],not depleted at sub-micromolar doses
same,IC50,[20],36.4 nM
same,IC50,[21],121 nM
same,IC50,[22],113 nM
same,depletion of fibroblasts,[23],not depleted at sub-micromolar doses
same,IC50,[24],9.51 nM
same,depletion of NPCs,[25],not depleted at sub-micromolar doses
same,IC50,[26],93.4 nM
same,BLI signal fold change in 040114 xenografts,[27],significant reduction in signal fold change
same,IC50,[28],10 nM
same,survival of normal neural precursors (NPC),[29],highly resistant; also recorded: minimal impact on the survival
same,survival of fibroblasts (MRCS),[30],highly resistant; also recorded: minimal impact on the survival
same,IC50,[31],26.1 nM
